# Experimental data as given in US8652087B2, “Method for use of microdialysis” (priority 2009, dated 2014).
# Assays:
# [1] = Charcoal MTZ adsorption kinetics study (PMD and direct donor sampling); type: physicochemical; conditions: 37° C., first minute after charcoal addition
# Method: A charcoal suspension was prepared at least 24 hours before use by adding 0.6 g of activated charcoal (Sigma Chemical, St. Louis, Mo.) to 100 mL of 0.6% Dextran Solution (Birkmeier et al., 1995). A donor solution of MTZ in 0.005N NaOH was made with an initial concentration of C0=200 μg/mL and volume of 48 mL. A probe was immersed in the solution, and PMD was started before adding the charcoal using a dialysate that initially contained no MTZ. Samples were collected every 10 seconds, using a resting time of 8 seconds, a flow rate of 100 μL/min, and a sample volume of 5 μL. After collecting at least six samples, 2 mL of the charcoal suspension was quickly (in 1-2 seconds) mixed into 48 mL of stirred MTZ solution, giving a final volume of 50 mL. […] Samples were collected during 10 second intervals, and the start times for the sampling intervals were 0, 0.2, 0.4, 0.7, 1, 2, 5, 10 and 30 minutes. The flow rate was 100 μL/min, the rest time was 8 seconds, and the sample volume was 5 μL. The samples were immediately analyzed using HPLC. […] Direct sampling of the donor was also done at various times for comparison with the PMD data. The direct donor samples were immediately filtered to remove the activated charcoal and analyzed using HPLC.
# red blood cells = conditions: in the first 1-2 minutes; cited from earlier work
# [2] = at 37° C.; cited from earlier work
# [3] = Benzocaine release from self-emulsifying microemulsion systems by PMD; type: physicochemical; conditions: occupying the probe window for one minute; Tween 20:Cremophor EL:peppermint oil systems diluted 1:25 in water
# Method: The medium outside the probe served as the receiver in this case. Before the PMD experiments, various anhydrous liquid systems were made, to be used to release benzocaine. In all cases, two surfactants, Tween 20 and Cremophor EL (both from Sigma Chemical, St. Louis, Mo.), were blended in a 2:1 (weight:weight) ratio. Various amounts of peppermint oil were added (from 0 to 30% oil by weight) to make the anhydrous systems. Benzocaine (50 mg per gram of peppermint oil) was subsequently added to each system, and stirring was done until all benzocaine was dissolved and distributed within the oil and surfactant blend. These anhydrous systems were then diluted 1:25 in water, and used as the dialysate. A probe was immersed in 50 mL of water (which served as the receiver) that initially contained no drug. Since benzocaine is a weak base, various pH values were used, but the pH of the water and dialysate were the same in all cases. The dialysate (containing the microemulsions and acting as the donor) was pumped into the probe window, allowed to remain at rest for various resting times (5-100 seconds), pumped out and collected, and subsequently assayed for benzocaine content to determine the fraction of benzocaine lost as a function of the total time in the probe window. The flow rate Q was 100 μL/min and the sample volume was 5 μL.
SMILES,decline of concentration during the first minute [1] [%],decrease of buffer concentration by uptake into red blood cells (red blood cells) [%],diffusion coefficient (value of the reference drug) [2],benzocaine lost from microemulsion dialysate [3] [%]
"CC(=O)/N=c1/sc(S(N)(=O)=O)nn1C [MTZ, methazolamide]",~50,50,4×10^−6 cm^2/s,
CCOC(=O)c1ccc(N)cc1 [benzocaine],,,,≤ 90
